The target of this assay is T1, TRPML1 (Homo sapiens, UniProt Q9GZU1).
T1 construct: expressed in transfected cells; host or cells: HEK T-REx cells stably expressing GCaMP6f and TRPML1
Put plainly: Cellular TRPML1 assay (FLIPR, GCaMP6f calcium read-out). Format: cell-based. The following applies: HEKT-REx/GCaMP6f/TRPML1 cells, FLIPR TETRA, kinetic response over 300 seconds; read-out: TRPML1 FLIPR pEC50 (converted). The protocol: Example A: Cellular TRPML1 Assay
The final clone for the TRPML1 assay is HEKT-REx/GCaMP6f/TRPML1. GCaMP6f is a genetically encoded calcium indicator that is stably expressed in this cell line and used as a fluorescent read-out.
Experiments were performed in 384 MTP format. Cells are seeded at 15000 cells/well in 20 μl/well of Optimem+0.5% FBS without selection antibiotics. Twenty-four hours later, cells are assayed for the response to various compounds using the Ca^2+ sensitive GCaMP6f protein stably expressed in the cells as readout.
The experiment was performed in a 384-well format according to the following procedures: • 24 h after seeding, the cells were pre-incubated at room temperature for about 10 min. • Started the experiment at the FLIPR^TETRA by injecting 10 μL/w of 3× concentrated test compounds and controls in Ca^2+ free Tyrode's buffer. Monitored the kinetic response over a period of 300 seconds. • Final DMSO concentration: 0.5%
Data from FLIPR^TETRA measurements were analyzed with the Genedata Screener© software.

Structures are written as SMILES.

T1 sequence (Q9GZU1 whole entry): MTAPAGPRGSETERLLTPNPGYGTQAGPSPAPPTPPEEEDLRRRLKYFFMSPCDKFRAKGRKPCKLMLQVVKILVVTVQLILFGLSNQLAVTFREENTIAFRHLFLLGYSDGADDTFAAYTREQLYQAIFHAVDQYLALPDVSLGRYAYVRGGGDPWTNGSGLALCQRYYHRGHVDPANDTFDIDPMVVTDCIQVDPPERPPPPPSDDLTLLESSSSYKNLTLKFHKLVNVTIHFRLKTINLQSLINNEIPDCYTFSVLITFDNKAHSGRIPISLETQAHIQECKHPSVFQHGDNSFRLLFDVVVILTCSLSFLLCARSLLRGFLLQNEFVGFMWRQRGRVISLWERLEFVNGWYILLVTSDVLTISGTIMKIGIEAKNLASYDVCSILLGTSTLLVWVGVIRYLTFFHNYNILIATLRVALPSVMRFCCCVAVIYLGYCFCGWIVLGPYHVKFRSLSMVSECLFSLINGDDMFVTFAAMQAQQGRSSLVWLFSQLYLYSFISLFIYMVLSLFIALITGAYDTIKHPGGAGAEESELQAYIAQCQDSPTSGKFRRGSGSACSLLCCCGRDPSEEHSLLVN

Take `O=C(Nc1ccc(OC2CCCC2)c(F)c1)c1nc(N2C[C@H]3CCO[C@H]3C2)oc1CC(F)(F)F` [Example 61, N-(4-(cyclopentyloxy)-3-fluorophenyl)-2-((3aR,6aR)-hexahydro-5H-furo[2,3-c]pyrrol-5-yl)-5-(2,2,2-trifluoroethyl)oxazole-4-carboxamide]: the EC50 is 1 to 10 µM.
To `O=C(Nc1ccc(OC2CCCC2)c(F)c1)c1nc(N2CCCC2)oc1CC(F)(F)F` [Example 62, N-[4-(cyclopentyloxy)-3-fluorophenyl]-2-(pyrrolidin-1-yl)-5-(2,2,2-trifluoroethyl)oxazole-4-carboxamide] belongs 1 to 10 µM.
As to `O=C(Nc1ccc(OC2COCC2(F)F)c(F)c1)c1nc(N2CCC3(CC3)C2)oc1CC(F)(F)F` (stereo not drawn) [Example 63, N-(4-((4,4-difluorotetrahydrofuran-3-yl)oxy)-3-fluorophenyl)-2-(5-azaspiro[2.4]heptan-5-yl)-5-(2,2,2-trifluoroethyl)oxazole-4-carboxamide], the EC50 is 1 to 10 µM.
The result for `O=C(Nc1ccc(OC2CCCCC2)c(F)c1)c1nc(N2CCCC2)oc1CC(F)(F)F` [Example 65, N-(4-(cyclohexyloxy)-3-fluorophenyl)-2-(pyrrolidin-1-yl)-5-(2,2,2-trifluoroethyl)oxazole-4-carboxamide] reads 1 to 10 µM; that for `O=C(Nc1ccc(OC2CCCOC2)c(F)c1)c1nc(N2CCCC2)oc1CC(F)(F)F` (stereo not drawn) [Example 66, N-[3-fluoro-4-(oxan-3-yloxy)phenyl]-2-(pyrrolidin-1-yl)-5-(2,2,2-trifluoroethyl)oxazole-4-carboxamide], 1 to 10 µM; that for `O=C(Nc1ccc(OC2CCCC23CCC3)c(F)c1)c1nc(N2CCCC2)oc1CC(F)(F)F` (stereo not drawn) [Example 67, N-(3-fluoro-4-{spiro[3.4]octan-5-yloxy}phenyl)-2-(pyrrolidin-1-yl)-5-(2,2,2-trifluoroethyl)oxazole-4-carboxamide], 1 to 10 µM.
With `O=C(Nc1ccc(O[C@H]2COCC2(F)F)c(F)c1)c1nc(N2CCCC2)oc1CC(F)(F)F` [Example 69, (S)—N-(4-((4,4-difluorotetrahydrofuran-3-yl)oxy)-3-fluorophenyl)-2-(pyrrolidin-1-yl)-5-(2,2,2-trifluoroethyl)oxazole-4-carboxamide], the EC50 is 0.01 to 1 µM.
Take `CC1(C)CN(c2nc(C(=O)Nc3cc(F)c(OC4COCC4(F)F)c(F)c3)c(CC(F)(F)F)o2)C1` (stereo not drawn) [Example 70, N-{4-[(4,4-difluorotetrahydrofuran-3-yl)oxy]-3,5-difluorophenyl}-2-(3,3-dimethylazetidin-1-yl)-5-(2,2,2-trifluoroethyl)oxazole-4-carboxamide]: the EC50 was 0.01 to 1 µM.
Regarding `CN(c1ccc(NC(=O)c2nc(N3CC4(C3)CC(F)(F)C4)oc2CC(F)(F)F)cc1F)C1CCCC1` [Example 79, N-{4-[cyclopentyl(methyl)amino]-3-fluorophenyl}-2-{6,6-difluoro-2-azaspiro[3.3]heptan-2-yl}-5-(2,2,2-trifluoroethyl)oxazole-4-carboxamide], the EC50 was 1 to 10 µM.
The result for `CN(c1ccc(NC(=O)c2nc(N3CCCC3)oc2CC(F)(F)F)cc1F)C1CC2CC2C1` (stereo not drawn) [Example 80, N-(4-{bicyclo[3.1.0]hexan-3-yl(methyl)amino}-3-fluorophenyl)-2-(pyrrolidin-1-yl)-5-(2,2,2-trifluoroethyl)oxazole-4-carboxamide] reads 1 to 10 µM; that for `CN(c1c(F)cc(NC(=O)c2nc(N3CCCC3)oc2CC(F)(F)F)cc1F)C1CCCC1(F)F` (stereo not drawn) [Example 81, N-{4-[(2,2-difluorocyclopentyl)(methyl)amino]-3,5-difluorophenyl}-2-(pyrrolidin-1-yl)-5-(2,2,2-trifluoroethyl)oxazole-4-carboxamide], 1 to 10 µM.
Turning to `O=C(Nc1ccc(OC2CCCC2)c(O)c1)c1nc(N2CCCC2)oc1CC(F)(F)F` [Example 85, N-(4-(cyclopentyloxy)-3-hydroxyphenyl)-2-(pyrrolidin-1-yl)-5-(2,2,2-trifluoroethyl)oxazole-4-carboxamide], the EC50 is 1 to 10 µM.
Consider `O=C(Nc1ccc(OC2CCCC2(F)F)c(O)c1)c1nc(N2CCCC2)oc1CC(F)(F)F` (stereo not drawn) [Example 86, N-{4-[(2,2-difluorocyclopentyl)oxy]-3-hydroxyphenyl}-2-(pyrrolidin-1-yl)-5-(2,2,2-trifluoroethyl)-1,3-oxazole-4-carboxamide], for which the EC50 was 1 to 10 µM.
With `CCN(c1ccc(NC(=O)c2nc(N3CCCC3)oc2CC(F)(F)F)cc1F)C1CCCC1(F)F` (stereo not drawn) [Example 87, N-(4-((2,2-difluorocyclopentyl)(ethyl)amino)-3-fluorophenyl)-2-(pyrrolidin-1-yl)-5-(2,2,2-trifluoroethyl)oxazole-4-carboxamide], the EC50 is 10 to 100 µM.
To `NCC1CN(c2nc(C(=O)Nc3ccc(OC4CCCC4(F)F)c(F)c3)c(CC(F)(F)F)o2)C1` (stereo not drawn) [Example 88, 2-[3-(aminomethyl)azetidin-1-yl]-N-{4-[(2,2-difluorocyclopentyl)oxy]-3-fluorophenyl}-5-(2,2,2-trifluoroethyl)oxazole-4-carboxamide] belongs 10 to 100 µM; to `Cc1oc(N2CC3(C2)CC(F)(F)C3)nc1C(=O)Nc1ccc(N2CCCCC2)c(F)c1` [Example 89, 2-(6,6-difluoro-2-azaspiro[3.3]heptan-2-yl)-N-(3-fluoro-4-(piperidin-1-yl)phenyl)-5-methyloxazole-4-carboxamide], 1 to 10 µM.
For `Cc1oc(N2CCC3(CCC3)C2)nc1C(=O)Nc1ccc(N2CCCCC2)c(F)c1` [Example 92, N-(3-fluoro-4-(piperidin-1-yl)phenyl)-5-methyl-2-(6-azaspiro[3.4]octan-6-yl)oxazole-4-carboxamide], the EC50 was 10 to 100 µM.
Regarding `Cc1oc(N2CCCC2CO)nc1C(=O)Nc1ccc(N2CCCCC2)c(F)c1` (stereo not drawn) [Example 93, N-(3-fluoro-4-(piperidin-1-yl)phenyl)-2-(2-(hydroxymethyl)pyrrolidin-1-yl)-5-methyloxazole-4-carboxamide], the EC50 was 10 to 100 µM.
`Cc1oc(N2CCN(C3CC3)CC2)nc1C(=O)Nc1ccc(N2CCCCC2)c(F)c1` [Example 94, 2-(4-cyclopropylpiperazin-1-yl)-N-(3-fluoro-4-(piperidin-1-yl)phenyl)-5-methyloxazole-4-carboxamide]: the EC50 is 10 to 100 µM.
With `Cc1oc(NC2CCCC23CCCO3)nc1C(=O)Nc1ccc(N2CCCCC2)c(F)c1` (stereo not drawn) [Example 95, 2-((1-oxaspiro[4.4]nonan-6-yl)amino)-N-(3-fluoro-4-(piperidin-1-yl)phenyl)-5-methyloxazole-4-carboxamide], the EC50 was 10 to 100 µM.
As for `Cc1oc(N2CCC(O)C2)nc1C(=O)Nc1ccc(N2CCCCC2)c(F)c1` (stereo not drawn) [Example 97, N-(3-fluoro-4-(piperidin-1-yl)phenyl)-2-(3-hydroxypyrrolidin-1-yl)-5-methyloxazole-4-carboxamide], the EC50 is 10 to 100 µM.
As for `Cc1oc(N2C3CCC2COC3)nc1C(=O)Nc1ccc(N2CCCCC2)c(F)c1` [Example 98, 2-(3-oxa-8-azabicyclo[3.2.1]octan-8-yl)-N-(3-fluoro-4-(piperidin-1-yl)phenyl)-5-methyloxazole-4-carboxamide], the EC50 is 10 to 100 µM.
On to `COCc1oc(N2CCCC2)nc1C(=O)Nc1ccc(OC2CCCC2)c(F)c1` [Example 101, N-[4-(cyclopentyloxy)-3-fluorophenyl]-5-(methoxymethyl)-2-(pyrrolidin-1-yl)oxazole-4-carboxamide], for which the EC50 was 10 to 100 µM.
For the compound `COCc1oc(N2CCCC2)nc1C(=O)Nc1cc(F)c(N2CCCCC2)c(F)c1` [Example 102, N-[3,5-difluoro-4-(piperidin-1-yl)phenyl]-5-(methoxymethyl)-2-(pyrrolidin-1-yl) oxazole-4-carboxamide], the EC50 is 1 to 10 µM.
On to `COCc1oc(N2CCCC2C)nc1C(=O)Nc1ccc(N2CCCCC2)c(F)c1` (stereo not drawn) [Example 103, N-(3-fluoro-4-(piperidin-1-yl)phenyl)-5-(methoxymethyl)-2-(2-methylpyrrolidin-1-yl)oxazole-4-carboxamide], for which the EC50 is 10 to 100 µM.
Take `COCc1oc(N2CC3(C2)CC(F)(F)C3)nc1C(=O)Nc1ccc(N2CCCCC2)c(F)c1` [Example 104, 2-{6,6-difluoro-2-azaspiro[3.3]heptan-2-yl}-N-[3-fluoro-4-(piperidin-1-yl)phenyl]-5-(methoxymethyl)oxazole-4-carboxamide]: the EC50 was 1 to 10 µM.
The result for `COCc1oc(N2CCCC2)nc1C(=O)Nc1ccc(OC2CCCC2(F)F)c(F)c1` (stereo not drawn) [Example 105, N-(4-((2,2-difluorocyclopentyl)oxy)-3-fluorophenyl)-5-(methoxymethyl)-2-(pyrrolidin-1-yl)oxazole-4-carboxamide] reads 1 to 10 µM; that for `Cc1oc(N2CCC(CN3CCC3)C2)nc1C(=O)Nc1ccc(N2CCCCC2)c(F)c1` (stereo not drawn) [Example 106, 2-(3-(azetidin-1-ylmethyl)pyrrolidin-1-yl)-N-(3-fluoro-4-(piperidin-1-yl)phenyl)-5-methyloxazole-4-carboxamide], 10 to 100 µM; that for `Cc1oc(N2CCC(CN3CCC(F)(F)CC3)C2)nc1C(=O)Nc1ccc(N2CCCCC2)c(F)c1` (stereo not drawn) [Example 107, 2-(3-((4,4-difluoropiperidin-1-yl)methyl)pyrrolidin-1-yl)-N-(3-fluoro-4-(piperidin-1-yl)phenyl)-5-methyloxazole-4-carboxamide], 10 to 100 µM.
As to `CC(C)OCc1oc(N2CCCC2)nc1C(=O)Nc1ccc(OC2CCCC2(F)F)c(F)c1` (stereo not drawn) [Example 109], the EC50 was 1 to 10 µM.
